Experiments:
[1] = target: Epidermal growth factor receptor (Homo sapiens, UniProt P00533, EX19DEL); assay: Inhibition of EGFR del19 (unknown origin) using flurogenic substrate in presence of ATP by HTRF assay
[2] = target: Epidermal growth factor receptor (Homo sapiens, UniProt P00533, C797S/T790M); assay: Inhibition of EGFR T790M/C797S double mutant (unknown origin) using flurogenic substrate in presence of ATP by HTRF assay
[3] = target: Epidermal growth factor receptor (Homo sapiens, UniProt P00533); assay: Inhibition of wild type EGFR (unknown origin) using flurogenic substrate in presence of ATP by HTRF assay
[4] = Selectivity index, ratio of IC50 Inhibition of wild type EGFR (unknown origin) to IC50 for Inhibition of EGFR T790M/C797S double mutant (unknown origin)
[5] = tested on: NCI-H1975; assay: cells; type: functional, cell-based; conditions: Homo sapiens, NCI-H1975, 72 h
[6] = tested on: HCC827; assay: Antiproliferative activity against human HCC827 cells expressing EGFR del119 mutant assessed as inhibition in cell viability after 72 hrs by CCK8 assay; type: functional, cell-based; conditions: HCC827, 72 h
[7] = tested on: A549; assay: Antiproliferative activity against human A549 cells expressing wild type EGFR assessed as inhibition in cell viability after 72 hrs by CCK8 assay; type: functional, cell-based; conditions: A549, 72 h
[8] = tested on: NCI-H1299; assay: Antiproliferative activity against human NCI-H1299 cells expressing wild type EGFR assessed as inhibition in cell viability after 72 hrs by CCK8 assay; type: functional, cell-based; conditions: NCI-H1299, 72 h
[9] = in vitro; conditions: human
[10] = in vitro; conditions: human; remark: listed apart in the source
[11] = tested on: NCI-H1299; assay: Induction of cell cycle arrest in human NCI-H1299 cells assessed as accumulation at G0/G1 phase at 2.5 uM after 36 hrs by PI staining based flow cytometry analysis (reference value: 70.2%); type: functional
[12] = tested on: NCI-H1299; assay: Induction of cell cycle arrest in human NCI-H1299 cells assessed as accumulation at G2/M phase at 2.5 uM after 36 hrs by PI staining based flow cytometry analysis (reference value: 5.6%); type: functional
[13] = tested on: NCI-H1299; assay: Induction of cell cycle arrest in human NCI-H1299 cells assessed as accumulation at S phase at 2.5 uM after 36 hrs by PI staining based flow cytometry analysis (reference value: 24.8%); type: functional
[14] = tested on: NCI-H1975; assay: Induction of cell cycle arrest in human NCI-H1975 cells assessed as accumulation at G0/G1 phase at 2.5 uM after 36 hrs by PI staining based flow cytometry analysis (reference value: 24.2%); type: functional
[15] = tested on: NCI-H1975; assay: Induction of cell cycle arrest in human NCI-H1975 cells assessed as accumulation at G2/M phase at 2.5 uM after 36 hrs by PI staining based flow cytometry analysis (reference value: 43.1%); type: functional
[16] = tested on: NCI-H1975; assay: Induction of cell cycle arrest in human NCI-H1975 cells assessed as accumulation at S phase at 2.5 uM after 36 hrs by PI staining based flow cytometry analysis (reference value: 32.7 %); type: functional
[17] = tested on: NCI-H1299; assay: Induction of apoptosis in human NCI-H1299 cells assessed as increase in viable cells at 2.5 uM after 36 hrs by annexin-V-FITC/PI staining based flow cytometric analysis (reference value: 94.1%); type: functional
[18] = tested on: NCI-H1299; assay: Induction of apoptosis in human NCI-H1299 cells assessed as increase in early apoptotic cells at 2.5 uM after 36 hrs by annexin-V-FITC/PI staining based flow cytometric analysis (reference value: 0.79%); type: functional
[19] = tested on: NCI-H1299; assay: Induction of apoptosis in human NCI-H1299 cells assessed as increase in late apoptotic cells at 2.5 uM after 36 hrs by annexin-V-FITC/PI staining based flow cytometric analysis (reference value: 4.39%); type: functional
[20] = tested on: NCI-H1299; assay: Induction of apoptosis in human NCI-H1299 cells assessed as increase in necrotic cells at 2.5 uM after 36 hrs by annexin-V-FITC/PI staining based flow cytometric analysis (reference value: 0.75%); type: functional
[21] = tested on: NCI-H1975; assay: Induction of apoptosis in human NCI-H1975 cells assessed as increase in viable cells at 2.5 uM after 36 hrs by annexin-V-FITC/PI staining based flow cytometric analysis (reference value: 94.6%); type: functional
[22] = tested on: NCI-H1975; assay: Induction of apoptosis in human NCI-H1975 cells assessed as increase in early apoptotic cells at 2.5 uM after 36 hrs by annexin-V-FITC/PI staining based flow cytometric analysis (reference value: 1.24%); type: functional
[23] = tested on: NCI-H1975; assay: Induction of apoptosis in human NCI-H1975 cells assessed as increase in late apoptotic cells at 2.5 uM after 36 hrs by annexin-V-FITC/PI staining based flow cytometric analysis (reference value: 3.85%); type: functional
[24] = tested on: NCI-H1975; assay: Induction of apoptosis in human NCI-H1975 cells assessed as increase in necrotic cells at 2.5 uM after 36 hrs by annexin-V-FITC/PI staining based flow cytometric analysis (reference value: 0.35%); type: functional

Sequence of Epidermal growth factor receptor (Homo sapiens, UniProt P00533, EX19DEL) (P00533 whole entry, looked up, stated change not applied): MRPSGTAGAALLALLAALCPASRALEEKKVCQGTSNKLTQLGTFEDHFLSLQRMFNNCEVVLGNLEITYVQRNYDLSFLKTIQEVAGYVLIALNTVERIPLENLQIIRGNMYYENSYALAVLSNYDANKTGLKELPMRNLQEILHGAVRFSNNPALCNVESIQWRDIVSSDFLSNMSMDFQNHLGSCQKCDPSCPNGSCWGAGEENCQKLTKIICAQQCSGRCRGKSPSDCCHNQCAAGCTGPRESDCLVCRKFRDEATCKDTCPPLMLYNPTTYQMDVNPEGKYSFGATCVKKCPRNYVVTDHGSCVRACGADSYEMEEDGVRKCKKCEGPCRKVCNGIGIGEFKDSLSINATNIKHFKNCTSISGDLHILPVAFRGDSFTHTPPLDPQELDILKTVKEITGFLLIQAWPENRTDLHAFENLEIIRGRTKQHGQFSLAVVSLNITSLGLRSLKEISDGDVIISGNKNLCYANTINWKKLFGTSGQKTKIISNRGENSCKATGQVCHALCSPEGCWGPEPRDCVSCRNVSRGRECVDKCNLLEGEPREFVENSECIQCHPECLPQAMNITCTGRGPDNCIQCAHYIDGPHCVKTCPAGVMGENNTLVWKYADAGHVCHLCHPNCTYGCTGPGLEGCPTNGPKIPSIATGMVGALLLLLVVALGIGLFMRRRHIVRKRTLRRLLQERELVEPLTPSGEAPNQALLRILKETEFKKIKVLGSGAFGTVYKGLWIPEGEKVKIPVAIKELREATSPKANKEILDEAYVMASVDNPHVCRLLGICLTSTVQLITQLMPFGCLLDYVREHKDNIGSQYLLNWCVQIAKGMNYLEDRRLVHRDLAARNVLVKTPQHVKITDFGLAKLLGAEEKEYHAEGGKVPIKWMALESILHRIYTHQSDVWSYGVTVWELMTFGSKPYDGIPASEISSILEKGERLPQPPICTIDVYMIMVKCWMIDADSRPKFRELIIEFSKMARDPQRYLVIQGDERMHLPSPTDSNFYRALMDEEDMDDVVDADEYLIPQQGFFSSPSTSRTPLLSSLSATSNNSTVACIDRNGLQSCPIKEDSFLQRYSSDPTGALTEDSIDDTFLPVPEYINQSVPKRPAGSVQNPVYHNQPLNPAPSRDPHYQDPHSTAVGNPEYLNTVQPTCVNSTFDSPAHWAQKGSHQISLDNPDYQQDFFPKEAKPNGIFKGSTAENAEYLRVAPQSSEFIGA
Sequence of Epidermal growth factor receptor (Homo sapiens, UniProt P00533) (P00533 whole entry): as the sequence (P00533 whole entry, looked up, stated change not applied) above
Sequence of Epidermal growth factor receptor (Homo sapiens, UniProt P00533, C797S/T790M) (P00533 25-1210 T790M/C797S limits assumed): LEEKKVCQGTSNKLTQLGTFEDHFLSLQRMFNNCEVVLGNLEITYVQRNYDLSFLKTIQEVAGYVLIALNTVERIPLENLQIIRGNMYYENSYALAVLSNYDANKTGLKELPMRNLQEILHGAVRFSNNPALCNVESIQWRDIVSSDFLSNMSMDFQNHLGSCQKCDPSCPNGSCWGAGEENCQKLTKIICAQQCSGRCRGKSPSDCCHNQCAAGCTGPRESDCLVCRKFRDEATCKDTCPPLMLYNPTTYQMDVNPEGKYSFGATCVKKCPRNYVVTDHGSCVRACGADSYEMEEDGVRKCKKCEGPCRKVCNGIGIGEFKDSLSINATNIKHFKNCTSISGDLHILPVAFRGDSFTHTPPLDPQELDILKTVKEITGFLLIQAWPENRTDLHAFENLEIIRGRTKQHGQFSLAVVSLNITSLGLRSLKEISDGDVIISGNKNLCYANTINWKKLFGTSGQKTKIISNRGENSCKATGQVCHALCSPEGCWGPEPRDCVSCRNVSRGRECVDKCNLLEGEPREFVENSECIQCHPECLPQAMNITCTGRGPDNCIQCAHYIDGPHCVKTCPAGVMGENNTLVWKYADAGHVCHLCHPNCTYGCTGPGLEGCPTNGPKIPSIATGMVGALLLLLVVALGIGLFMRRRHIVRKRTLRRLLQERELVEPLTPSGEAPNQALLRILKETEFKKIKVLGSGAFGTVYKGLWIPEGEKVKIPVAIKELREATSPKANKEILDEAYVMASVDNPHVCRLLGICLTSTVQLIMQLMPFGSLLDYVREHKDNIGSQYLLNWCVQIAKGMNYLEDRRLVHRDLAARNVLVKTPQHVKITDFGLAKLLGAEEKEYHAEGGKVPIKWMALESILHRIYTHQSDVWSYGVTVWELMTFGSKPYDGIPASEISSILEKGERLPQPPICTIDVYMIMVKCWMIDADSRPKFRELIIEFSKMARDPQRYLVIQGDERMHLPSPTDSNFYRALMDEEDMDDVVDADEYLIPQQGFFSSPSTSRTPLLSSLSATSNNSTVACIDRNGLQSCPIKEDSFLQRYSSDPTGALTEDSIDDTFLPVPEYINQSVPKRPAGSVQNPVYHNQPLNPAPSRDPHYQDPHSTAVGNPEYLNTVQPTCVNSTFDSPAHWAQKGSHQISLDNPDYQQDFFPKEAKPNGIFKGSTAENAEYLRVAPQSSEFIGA

Row | Structure (SMILES) | IC50 [1] [µM] | IC50 [2] [µM] | IC50 [3] [µM] | Ratio IC50 [4] | IC50 [6] [µM] | IC50 [7] [µM] | IC50 [8] [µM] | also measured
1 | C=CC(=O)Nc1cc(Nc2nccc(Nc3cnn(CC)c3)n2)c(OC)cc1N(C)CCN(C)C | 0.0187 | 0.00802 | 0.101 | 12.5 | – | – | – | –
2 | C=CC(=O)Nc1cc(Nc2nccc(Nc3ccn(C)n3)n2)c(OC)cc1N(C)CCN(C)CC(=O)OC | 0.106 | 0.0424 | 0.952 | 22.5 | – | – | – | –
3 | C=CC(=O)Nc1cc(Nc2nccc(Nc3cn(C)c4ccccc34)n2)c(OC)cc1N(C)CCN(C)Cc1ccccc1 | – | – | – | – | 0.117 | 2.61 | 3.98 | IC50 [5]: 0.00402 µM
4 | C=CC(=O)Nc1cc(Nc2nccc(Nc3cn(C)c4ccccc34)n2)c(OC)cc1N(C)CCN(C)C(=O)C=C | 0.723 | 0.0366 | > 10 | > 273 | – | – | – | –
5 | C=CC(=O)Nc1cc(Nc2nccc(Nc3cn(C)c4ccccc34)n2)c(OC)cc1N(C)CCN(C)C(=O)OC | 0.213 | 0.0123 | 2.91 | 235 | – | – | – | –
6 | C=CC(=O)Nc1cc(Nc2nccc(Nc3cn(C)nc3C)n2)c(OC)cc1N(C)CCN(C)C | 0.0116 | 0.00565 | 0.0713 | 12.6 | – | – | – | –
7 | C=CC(=O)Nc1cc(Nc2nccc(Nc3cnn(C)c3)n2)c(OC)cc1N(C)CCN(C)C | 0.0543 | 0.0214 | 0.495 | 23.1 | – | – | – | –
8 | C=CC(=O)Nc1cc(Nc2nccc(Nc3cn(C)c4ccccc34)n2)c(OC)cc1N(C)CCN(C)Cc1ccc(Br)cc1 | 0.143 | 0.00813 | 2.47 | 304 | 6.46 | > 100 | > 100 | IC50 [5]: 0.0297 µM; selectivity ratio [9]: 2640; selectivity ratio [10]: 2640
9 | C=CC(=O)Nc1cc(Nc2nccc(Nc3cn(C)c4ccccc34)n2)c(OC)cc1N(C)CCN(C)C(=O)c1ccc(Br)cc1 | 0.301 | 0.0125 | > 10 | > 797 | 7.15 | > 100 | > 100 | IC50 [5]: 0.0379 µM; selectivity ratio [9]: 3370; selectivity ratio [10]: 3370
10 | C=CC(=O)Nc1cc(Nc2nccc(Nc3ccn(C)n3)n2)c(OC)cc1N(C)CCN(C)C | 0.0126 | 0.0062 | 0.0965 | 15.6 | – | – | – | –
11 | C=CCCN(C)CCN(C)c1cc(OC)c(Nc2nccc(Nc3cn(C)c4ccccc34)n2)cc1NC(=O)C=C | 0.0131 | 0.002 | 0.0427 | 21.3 | 0.0247 | 1.38 | 1.77 | IC50 [5]: 0.00201 µM; selectivity ratio [9]: 687; selectivity ratio [10]: 881
12 | C=CC(=O)Nc1cc(Nc2nccc(Nc3ccn(C)n3)n2)c(OC)cc1N(C)CCN(C)CC(=C)C | 0.625 | 0.397 | 3.18 | 8.02 | – | – | – | –
13 | C=CC(=O)Nc1cc(Nc2nccc(Nc3cn(C)c4ccccc34)n2)c(OC)cc1N(C)CCN(C)C(=O)C#CC | 0.949 | 0.058 | > 10 | > 172 | – | – | – | –
14 | C=CC(=O)Nc1cc(Nc2nccc(Nc3ccn(C)n3)n2)c(OC)cc1N(C)CCN(C)C(=O)OC | 0.288 | 0.502 | 4.93 | 9.84 | – | – | – | –
15 | C#CCN(C)CCN(C)c1cc(OC)c(Nc2nccc(Nc3ccn(C)n3)n2)cc1NC(=O)C=C | 0.0223 | 0.00858 | 0.0508 | 5.92 | – | – | – | –
16 | C=CC(=O)Nc1cc(Nc2nccc(-c3cn(C)c4ccccc34)n2)c(OC)cc1N(C)CCN(C)C [OSIMERTINIB] | – | – | – | – | 0.00173 | 0.335 | 2.84 | Activity [11]: 67.3%; Activity [12]: 8.4%; Activity [13]: 24.3%; Activity [14]: 17.1%; Activity [15]: 65.4%; Activity [16]: 17.5%; Activity [17]: 90.7%; Activity [18]: 1.47%; Activity [19]: 7.44%; Activity [20]: 0.43%; Activity [21]: 41.1%; Activity [22]: 40.8%; Activity [23]: 18.1%; Activity [24]: 0.016%
17 | C=CC(=O)Nc1cc(Nc2nccc(Nc3cn(C)c4ccccc34)n2)c(OC)cc1N(C)CCN(C)CC(=O)OC | 0.0464 | 0.00575 | 0.453 | 78.8 | 0.346 | 5.19 | 5.3 | IC50 [5]: 0.00831 µM; selectivity ratio [9]: 624; selectivity ratio [10]: 637
18 | C=CC(=O)Nc1cc(Nc2nccc(Nc3cn(C)c4ccccc34)n2)c(OC)cc1N(C)CCN(C)CC(=C)C | 0.064 | 0.00575 | 0.181 | 31.4 | – | – | – | –
